Reference: patent US4349551A, “Penicillin derivatives and compositions containing them” (Beecham Group Limited, priority 1980, dated 1982)
In brackets after ≈: the same amount, converted by molar mass. Like-named read-outs stand apart in the source and are kept apart here.

Legend:
P. mirabilis C 977 = assay: MIC against P. mirabilis C 977; assay type: cell-based; conditions: Proteus mirabilis, C977, Agar
From the text: (§1) | MIC values (μg/ml) of the compounds of | Examples 1 and 2 against a number of | organisms important in human infections | Organism Agar Broth Agar Broth Agar

P. mirabilis 889 = assay: MIC against P. mirabilis 889; assay type: cell-based; conditions: Proteus mirabilis, Agar
From the text: as §1

S. aureus Oxford = assay: MIC against S. aureus Oxford; assay type: cell-based; conditions: Staphylococcus aureus, Agar
From the text: as §1

S. pyogenes ON 10 = assay: MIC against S. pyogenes ON 10; assay type: cell-based; conditions: Streptococcus pyogenes, ON10, Agar
From the text: as §1

P. morganii = assay: MIC against P. morganii; assay type: cell-based; conditions: Morganella morganii, Agar
From the text: as §1

S. aureus Russell = assay: MIC against S. aureus Russell; assay type: cell-based; conditions: Staphylococcus aureus, Agar
From the text: as §1

E. coli JT 425 = assay: MIC against E. coli JT 425; assay type: cell-based; conditions: Escherichia coli, JT425, Agar
From the text: as §1

E. coli NCTC 10413 = assay: MIC against E. coli NCTC 10413; assay type: cell-based; conditions: Escherichia coli
From the text: as §1

[1] = tested on: Ps. aeruginosa NCTC 10662; assay: MIC against Ps. aeruginosa NCTC 10662; assay type: cell-based; conditions: Agar
From the text: as §1

E. cloacae N1 = assay: MIC against E. cloacae N1; assay type: cell-based; conditions: Enterobacter cloacae, Agar
From the text: as §1

K. aerogenes A = assay: MIC against K. aerogenes A; assay type: cell-based; conditions: Klebsiella aerogenes
From the text: as §1

B. subtilis = assay: MIC against B. subtilis; assay type: cell-based; conditions: Bacillus subtilis, Agar
From the text: as §1

P. rettgeri = assay: MIC against P. rettgeri; assay type: cell-based; conditions: Providencia rettgeri, Agar
From the text: as §1

S. faecalis I = assay: MIC against S. faecalis I; assay type: cell-based; conditions: Enterococcus faecalis, Agar
From the text: as §1

S. marcescens US 32 = assay: MIC against S. marcescens US 32; assay type: cell-based; conditions: Serratia marcescens, US32, Agar
From the text: as §1

E. coli JT 4 = assay: MIC against E. coli JT 4; assay type: cell-based; conditions: Escherichia coli, JT4, Agar
From the text: as §1

Ps. aeruginosa Dalgleish = assay: MIC against Ps. aeruginosa Dalgleish; assay type: cell-based; conditions: Pseudomonas aeruginosa; Agar; Ps. aeruginosa Dalgleish 10^-2
From the text: as §1

N. catarrhalis 1502 = assay: MIC against N. catarrhalis 1502; assay type: cell-based; conditions: Agar
From the text: as §1

[2] = reconversion of the formyl ester to the parent 6-hydroxymethyl penicillin; assay type: physicochemical
Description: The benzyl ester from the previous example (101 mg, 0.15 mmol) in THF (5 ml) was added to prehydrogenated 10% palladium on charcoal (100 mg) in THF (5 ml), water (1 ml). After shaking with hydrogen for 0.5 hours, the catalyst was filtered from the solution and washed well with N sodium bicarbonate solution (40 ml). The filtrate was washed with ethyl acetate (2×40 ml), acidified to pH 1.5 with 1 N-hydrochloric acid and extracted with ethyl acetate (3×40 ml). The combined extracts were washed with brine, dried and evaporated to give the title compound (46 mg, 51%), δ [(CD3)2 CO] 1.12, 1.35 (6H, 2s, 2 x CH3) 1.20 (3H, t, NCH2 CH3), 3.3-3.8 (4H, m, NCH2 and piperazine CH2), 3.8-4.3 (4H, m, CH2 O and piperazine CH2), 4.70 (1H, s, C3-proton), 5.57 (1H, s, C5 -proton), 5.72 (1H, d, J 6 Hz, α-proton) 7.45 (5H, m, aromatic protons), 8.25 (1H, s, CHO), 8.48 ( 1H, s, NH), 10.08 (1H, d, J 6 Hz, NH).

[3] = Ps. aeruginosa NCTC 10662 10^-2
[4] = Pseudomonas aeruginosa, NCTC10662, Ps. aeruginosa NCTC 10662, read-out: MIC

| MIC (P. mirabilis C 977) [µg/mL] | MIC (P. mirabilis 889) [µg/mL] | MIC (S. aureus Oxford) [µg/mL] | MIC (S. pyogenes ON 10) [µg/mL] | MIC (P. morganii) [µg/mL] | MIC (S. aureus Russell) [µg/mL] | MIC (E. coli JT 425) [µg/mL] | MIC (E. coli NCTC 10413; NCTC10413, Agar) [µg/mL] | MIC [1, 3] [µg/mL] | MIC [1, 4] [µg/mL] | MIC (E. cloacae N1) [µg/mL] | MIC (K. aerogenes A; Agar) [µg/mL] | MIC (B. subtilis) [µg/mL] | MIC (P. rettgeri) [µg/mL] | MIC (S. faecalis I) [µg/mL] | MIC (S. marcescens US 32) [µg/mL] | MIC (E. coli JT 4) [µg/mL] | MIC (Ps. aeruginosa Dalgleish) [µg/mL] | MIC (E. coli NCTC 10413; NCTC10413, Broth) [µg/mL] | MIC (K. aerogenes A; Broth) [µg/mL] | SMILES | also measured |
| --- | --- | --- | --- | --- | --- | --- | --- | --- | --- | --- | --- | --- | --- | --- | --- | --- | --- | --- | --- | --- | --- |
| 10 | 10 | > 100 | > 100 | 10 | > 100 | 100 | 10 | > 100 | > 100 | 25 | 1 | > 100 | 25 | 100 | 50 | > 100 | – | – | – | CCN1CCN(C(=O)NC(C(=O)N[C@]2(CO)C(=O)N3[C@@H](C(=O)O)C(C)(C)S[C@@H]32)c2csc(N)n2)C(=O)C1=O (mixture of isomers) [Example 3, 6,α-Hydroxymethyl-6,β-[DL-α'-(4-ethyl-2,3-dioxopiperazine-1-carbonylamino)2-aminothiazole-4-acetamido]penicillanic acid] | – |
| 10 (≈ 18.3 µM) | 5 (≈ 9.13 µM) | > 100 | 25 (≈ 45.7 µM) | 25 (≈ 45.7 µM) | > 100 | 50 (≈ 91.3 µM) | 25 (≈ 45.7 µM) | > 100 | > 100 | 25 (≈ 45.7 µM) | 5 (≈ 9.13 µM) | > 100 | 50 (≈ 91.3 µM) | > 100 | 50 (≈ 91.3 µM) | 100 (≈ 183 µM) | > 100 | 10 (≈ 18.3 µM) | 100 (≈ 183 µM) | CCN1CCN(C(=O)N[C@@H](C(=O)N[C@]2(CO)C(=O)N3[C@@H](C(=O)O)C(C)(C)S[C@@H]32)c2ccccc2)C(=O)C1=O [Example 1, 6,α-Hydroxymethyl-6,β-[D,α'-(4-ethyl-2,3-dioxopiperazine-1-carbonylamino)-phenylacetamido]penicillanic acid] | MIC (N. catarrhalis 1502): 1 µg/mL (≈ 1.83 µM) |
| 2.5 (≈ 4.44 µM) | 2.5 (≈ 4.44 µM) | > 100 | 2.5 (≈ 4.44 µM) | 5 (≈ 8.87 µM) | > 100 | 50 (≈ 88.7 µM) | 5 (≈ 8.87 µM) | > 100 | > 100 | 5 (≈ 8.87 µM) | 2.5 (≈ 4.44 µM) | > 100 | 5 (≈ 8.87 µM) | > 100 | 5 (≈ 8.87 µM) | 100 (≈ 177 µM) | > 100 | 5 (≈ 8.87 µM) | 1 (≈ 1.77 µM) | CCN1CCN(C(=O)N[C@@H](C(=O)N[C@]2(CO)C(=O)N3[C@@H](C(=O)O)C(C)(C)S[C@@H]32)c2ccc(O)cc2)C(=O)C1=O [Example 2, 6,α-Hydroxymethyl-6,β-[D,α'-(4-ethyl-2,3-dioxopiperazine-1-carbonylamino)-p-hydroxyphenylacetamido]penicillanic acid] | MIC (N. catarrhalis 1502): 1 µg/mL (≈ 1.77 µM) |
| – | – | – | – | – | – | – | – | – | – | – | – | – | – | – | – | – | – | – | – | CCN1CCN(C(=O)N[C@@H](C(=O)N[C@]2(COC=O)C(=O)N3[C@@H](C(=O)O)C(C)(C)S[C@@H]32)c2ccccc2)C(=O)C1=O [Example 4, 6,α-Formyloxymethyl-6,β-[D,α'-(4-ethyl-2,3-dioxopiperazine-1-carbonylamino)-phenylacetamido]penicillanic acid] | reconversion to the 6-hydroxymethyl compound ([2]; in the solvents used for h.p.l.c.): complete and instantaneous; parent 6-hydroxymethyl penicillin formed on preparation of the sodium salt ([2]; precipitation from acetone using 2 N sodium ethyl hexanoate in methyl isobutyl ketone): an appreciable amount |
